Key:
[1] = test system: human bone marrow cells; assay: Bone marrow proliferation assay (3H-thymidine uptake, cytokine-activated cells); format: cell-based; details: Bone marrow cell; for IC50: concentration inhibiting proliferation by 50%
Method: Bone marrow (BM) was obtained from human donors, collected in Dulbecco's phosphate buffered saline (DPBS) containing 200 units/mL of heparin. The BM cells were then processed as described below. ROSETTESEP™ cocktail was added to the BM cells at a ratio of 50 μL of cocktail per 1 mL of cells in a test tube and the tubes were mixed well by repeated inversion. This mixture was then incubated at room temperature for approximately 20 minutes. A mixture containing PBS/2% FBS/1 mM EDTA was prepared and the BM sample was mixed in a 1:2 ratio (e.g., 10 mL marrow+20 mL PBS/2% FBS/1 mM EDTA) and gently mixed by inversion. […] Cells were counted and viability checked and cells were adjusted to 5×10^5/mL in complete medium containing the following human recombinant growth factors/cytokines at the indicated final concentrations (cytokines may be obtained from various sources; those from StemCell Technologies were used herein): • Stem Cell Factor (50 ng/mL) • GM-CSF (20 ng/mL) • IL-3 (20 ng/mL) • IL-6 (20 ng/mL) • G-CSF (20 ng/mL)
Flat-bottom microtiter tissue culture plates (96 well) were used for the assay. Cells were placed in wells so that each well contained 5×10^4 cells. Typically, cultures were performed in triplicate wells. Wells were brought to a final volume of 200 μL with either complete medium or various concentrations of test compounds, which were diluted in complete medium. Plates were covered with plastic wrap (to reduce evaporation) and placed in a humidified 5% CO2 incubator at 37° C. for 3 days.

[2] = test system: human bone marrow cells; assay: Traditional CFU-GM colony-forming assay (myelotoxicity); format: cell-based
Method: Bone marrow was enriched after ficoll hypaque density centrifugation. 1×10^5 bone marrow cells per dish, containing METHOCULT GF H4534 (1% methylcellulose, 30% FBS, 1% BSA, 10^-4 M 2-ME, 2 mM L-gln, 50 ng/mL recombinant human (rh) stem cell factor (SCF), 10 ng/mL rh granulocyte/macrophage-colony stimulating factor (GM-CSF), and 10 ng/mL rh interleukin-3 (IL-3). METHOCULT was obtained from StemCell Technologies (Vancouver, BC, Canada). Cultures were treated with various concentrations of test compounds for the entire culture period. Cultures were performed in duplicate and were incubated for ˜14 days at 37° C. in 5% CO2 and scored for colony growth (colony-forming units-granulocyte/macrophage, or CFU-GM) with a phase-contrast inverted microscope. Colonies containing >50 cells were considered positive.

[3] = 72 h, Prolif., linear regression, 3 days, mean +/- spread
[4] = 72 h, Prolif., concentration inhibiting proliferation by 90%, linear regression, 3 days, mean +/- spread, read-out: IC90
[5] = CFU-GM, 336 h, CFU-GM, concentration inhibiting colony growth by 50%, linear regression, ~14 days, mean +/- spread
[6] = CFU-GM, 336 h, CFU-GM, concentration inhibiting colony growth by 90%, linear regression, ~14 days, mean +/- spread
[7] = Bone marrow cell, Colony-forming Assay, intra-assay variation, equal to the mean of the five determinations
[8] = Bone marrow cell, Colony-forming Assay, intra-assay variation, individual determinations

Q: What does the source list for CC(=O)O[C@H]1C(=O)[C@@]2(C)[C@H]([C@H](OC(=O)c3ccccc3)[C@]3(O)C[C@H](OC(=O)[C@H](O)[C@@H](NC(=O)c4ccccc4)c4ccccc4)C(C)=C1C3(C)C)[C@]1(OC(C)=O)CO[C@@H]1C[C@@H]2O [Paclitaxel, paclitaxel]?
A: IC50 [1, 3]: 1.9 nM; IC90 [1, 4]: 4.9 nM; IC50 [2, 5]: 3.4 nM; IC90 [2, 6]: 6 nM

Q: For Nc1ccn([C@@H]2O[C@H](CO)[C@@H](O)C2(F)F)c(=O)n1 [Gemcitabine, gemcitabine], which IC50 [1, 3] is on record?
A: Its IC50 is 1.2 nM.

Q: What about the IC90 [1, 4] of the same compound?
A: Its IC90 is 4.4 nM.

Q: And the IC50 [2, 5]?
A: Its IC50 is 1.3 nM.

Q: And the IC90 [2, 6]?
A: Its IC90 is 4.2 nM.

Q: What does the source list for Cc1cn([C@H]2C[C@H](N=[N+]=[N-])[C@@H](CO)O2)c(=O)[nH]c1=O [AZT, 3′-azido-3′-deoxythymidine]?
A: IC90 ([1]; 72 h): 146000 nM; IC50 [1, 3]: 17100 nM; IC50 [2, 5]: 34500 nM; IC90 [2, 6]: 387000 nM

Q: With Nc1ccn([C@@H]2S[C@H](CO)[C@@H](O)[C@@H]2O)c(=O)n1 [Thio-ara-C, thio-ara-C] as the compound, how does the IC50 [1, 3] read?
A: The IC50 was 75 nM.

Q: And the IC90 [1, 4]?
A: Its IC90 is 301 nM.

Q: What about the IC50 [2, 5] of the same compound?
A: Its IC50 is 40.3 nM.

Q: And the IC90 [2, 6]?
A: Its IC90 is 122 nM.

Q: For COc1cccc2c1C(=O)c1c(O)c3c(c(O)c1C2=O)C[C@@](O)(C(=O)CO)C[C@@H]3O[C@H]1C[C@H](N)[C@H](O)[C@H](C)O1 [Doxorubicin, doxorubicin], which IC90 [1, 4] is on record?
A: Its IC90 is 68 nM.

Q: And the IC90 ([1]; Proliferation Assay, intra-assay variation, equal to the mean of the five determinations, read-out: IC90)?
A: Its IC90 is 70.2 nM.

Q: What about the IC90 ([1]; Proliferation Assay, intra-assay variation, individual determinations, read-out: IC90) of the same compound?
A: The IC90 was 71.2 nM.

Q: And the IC50 [2, 7]?
A: The IC50 was 29.1 nM.

Q: What about the IC90 [2, 7] of the same compound?
A: Its IC90 is 69.2 nM.

Q: And the IC50 [2, 8]?
A: Its IC50 is 34.2 nM.

Q: And the IC90 [2, 8]?
A: The IC90 was 72.4 nM.

Q: And the IC50 [2, 5]?
A: Its IC50 is 40 nM.

Q: And the IC90 [2, 6]?
A: The IC90 was 132 nM.
